Laboratory results published in patent US7368578B2, “Five-membered heterocyclic compounds” (Takeda Pharmaceutical Company Limited, priority 2002, dated 2008).

| SMILES | melting point |
| --- | --- |
| COc1cc(CC(=O)Nc2nn(-c3ccccc3)cc2C=O)ccc1OCc1nc(-c2ccco2)oc1C [Example 303, N-(4-formyl-1-phenyl-1H-pyrazol-3-yl)-2-(4-{[2-(2-furyl)-5-methyl-1,3-oxazol-4-yl]methoxy}-3-methoxyphenyl)acetamide] | 190 to 191 °C |
| Cc1oc(-c2ccccc2)nc1COc1ccc(OCc2oc(-c3ccccc3)nc2C=O)cc1 [Example 304, 5-({4-[(5-methyl-2-phenyl-1,3-oxazol-4-yl)methoxy]phenoxy}methyl)-2-phenyl-1,3-oxazole-4-carbaldehyde] | 127 to 128 °C |
| COc1cc(COc2nc(-c3ccccc3)ncc2C(=O)O)ccc1OCc1nc(-c2ccco2)oc1C [Example 305, 4-[(4-{[2-(2-furyl)-5-methyl-1,3-oxazol-4-yl]methoxy}-3-methoxybenzyl)oxy]-2-phenylpyrimidine-5-carboxylic acid] | 163 to 164 °C |
| COC(=O)c1cccc(-c2nc(COc3ccc(COc4nn(-c5ccccc5)cc4/C=C/c4nc(N5CCOCC5)sc4C)cc3OC)c(C)o2)c1 [Example 309, methyl 3-[4-({2-methoxy-4-[({4-[(E)-2-(5-methyl-2-morpholin-4-yl-1,3-thiazol-4-yl)ethenyl]-1-phenyl-1H-pyrazol-3-yl}oxy)methyl]phenoxy}methyl)-5-methyl-1,3-oxazol-2-yl]benzoate] | 183 to 184 °C |
| COc1cc(COc2nn(-c3ccccc3)cc2/C=C/c2nc(N3CCOCC3)sc2C)ccc1OCc1nc(-c2cccc(C(=O)O)c2)oc1C [Example 310, 3-[4-({2-methoxy-4-[({4-[(E)-2-(5-methyl-2-morpholin-4-yl-1,3-thiazol-4-yl)ethenyl]-1-phenyl-1H-pyrazol-3-yl}oxy)methyl]phenoxy)methyl)-5-methyl-1,3-oxazol-2-yl]benzoic acid] | 215 to 217 °C (dec.) |
| CCOC(=O)/C=C/c1nc(COc2ccc(COc3nn(-c4ccccc4)cc3C=O)cc2OC)c(C)o1 [Example 313, ethyl (2E)-3-{4-[(4-{[(4-formyl-1-phenyl-1H-pyrazol-3-yl)oxy]methyl}-2-methoxyphenoxy)methyl]-5-methyl-1,3-oxazol-2-yl}-2-propenoate] | 150 to 151 °C |
| COC(=O)c1cc(-c2nc(COc3ccc(COc4nn(-c5ccccc5)cc4C=O)cc3OC)c(C)o2)ccc1C [Example 319, methyl 5-{4-[(4-{[(4-formyl-1-phenyl-1H-pyrazol-3-yl)oxy]methyl}-2-methoxyphenoxy)methyl]-5-methyl-1,3-oxazol-2-yl}-2-methylbenzoate] | 195 to 196 °C |
| CCOC(=O)/C=C/c1nc(COc2ccc(COc3nn(-c4ccccc4)cc3/C=C/c3csc(CC)n3)cc2OC)c(C)o1 [Example 322 (E form), ethyl (2E)-3-[4-({4-[({4-[(E)-2-(2-ethyl-1,3-thiazol-4-yl)ethenyl]-1-phenyl-1H-pyrazol-3-yl}oxy)methyl]-2-methoxyphenoxy}methyl)-5-methyl-1,3-oxazol-2-yl]-2-propenoate] | 95 to 96 °C |
| CCOC(=O)/C=C/c1nc(COc2ccc(COc3nn(-c4ccccc4)cc3/C=C\c3csc(CC)n3)cc2OC)c(C)o1 [Example 322 (Z form), ethyl (2E)-3-[4-({4-[({4-[(Z)-2-(2-ethyl-1,3-thiazol-4-yl)ethenyl]-1-phenyl-1H-pyrazol-3-yl}oxy)methyl]-2-methoxyphenoxy}methyl)-5-methyl-1,3-oxazol-2-yl]-2-propenoate] | 119 to 120 °C |
| CCc1nc(/C=C/c2cn(-c3ccccc3)nc2OCc2ccc(OCc3nc(/C=C/C(=O)O)oc3C)c(OC)c2)cs1 [Example 323, (2E)-3-[4-({4-[({4-[(E)-2-(2-ethyl-1,3-thiazol-4-yl)ethenyl]-1-phenyl-1H-pyrazol-3-yl}oxy)methyl]-2-methoxyphenoxy}methyl)-5-methyl-1,3-oxazol-2-yl]-2-propenoic acid] | 125 to 126 °C |
| CCOC(=O)C1CCN(c2nc(COc3ccc(COc4nn(-c5ccccc5)cc4C=O)cc3OC)c(C)s2)CC1 [Example 324, ethyl 1-(4-[(4-{[(4-formyl-1-phenyl-1H-pyrazol-3-yl)oxy]methyl}-2-methoxyphenoxy)methyl]-5-methyl-1,3-thiazol-2-yl}piperidine-4-carboxylate] | 126 to 127 °C |
| CCOC(=O)c1ccc(-c2nc(COc3ccc(COc4nn(-c5ccccc5)cc4C=O)cc3OC)c(C)o2)s1 [Example 327, ethyl 5-{4-[(4-{[(4-formyl-1-phenyl-1H-pyrazol-3-yl)oxy]methyl}-2-methoxyphenoxy)methyl]-5-methyl-1,3-oxazol-2-yl}thiophene-2-carboxylate] | 156 to 157 °C |
| CCOC(=O)c1ccc(-c2nc(COc3ccc(COc4nn(-c5ccccc5)cc4/C=C/c4csc(CC)n4)cc3OC)c(C)o2)s1 [Example 330 (E form), ethyl 5-[4-({4-[({4-[(E)-2-(2-ethyl-1,3-thiazol-4-yl)ethenyl]-1-phenyl-1H-pyrazol-3-yl}oxy)methyl]-2-methoxyphenoxy}methyl)-5-methyl-1,3-oxazol-2-yl]thiophene-2-carboxylate] | 145 to 146 °C |
| CCOC(=O)c1ccc(-c2nc(COc3ccc(COc4nn(-c5ccccc5)cc4/C=C\c4csc(CC)n4)cc3OC)c(C)o2)s1 [Example 330 (Z form), ethyl 5-[4-({4-[({4-[(Z)-2-(2-ethyl-1,3-thiazol-4-yl)ethenyl]-1-phenyl-1H-pyrazol-3-yl}oxy)methyl]-2-methoxyphenoxy}methyl)-5-methyl-1,3-oxazol-2-yl]thiophene-2-carboxylate] | 118 to 119 °C |
| CCc1nc(/C=C/c2cn(-c3ccccc3)nc2OCc2ccc(OCc3nc(-c4ccc(C(=O)O)s4)oc3C)c(OC)c2)cs1 [Example 331, 5-[4-({4-[({4-[(E)-2-(2-ethyl-1,3-thiazol-4-yl)ethenyl]-1-phenyl-1H-pyrazol-3-yl}oxy)methyl]-2-methoxyphenoxy}methyl)-5-methyl-1,3-oxazol-2-yl]thiophene-2-carboxylic acid] | 150 to 151 °C |
| COc1cc(COc2nn(-c3ccccc3)cc2C=O)ccc1OCc1nc(-c2cccc(C#N)c2)oc1C [Example 332, 3-{4-[(4-{[(4-formyl-1-phenyl-1H-pyrazol-3-yl)oxy]methyl)-2-methoxyphenoxy}methyl]-5-methyl-1,3-oxazol-2-yl}benzonitrile] | 161 to 162 °C |
| CCOC(=O)Cc1ccc(-c2nc(COc3ccc(COc4nn(-c5ccccc5)cc4/C=C/c4csc(CC)n4)cc3OC)c(C)o2)cc1 [Example 338, ethyl {4-[4-({4-[({4-[(E)-2-(2-ethyl-1,3-thiazol-4-yl)ethenyl]-1-phenyl-1H-pyrazol-3-yl}oxy)methyl]-2-methoxyphenoxy}methyl)-5-methyl-1,3-oxazol-2-yl]phenyl}acetate] | 140 to 141 °C |
| CCOC(=O)Cc1ccc(-c2nc(COc3ccc(COc4nn(-c5ccccc5)cc4/C=C\c4csc(CC)n4)cc3OC)c(C)o2)cc1 [Example 338, ethyl {4-[4-({4-[({4-[(Z)-2-(2-ethyl-1,3-thiazol-4-yl)ethenyl]-1-phenyl-1H-pyrazol-3-yl}oxy)methyl]-2-methoxyphenoxy}methyl)-5-methyl-1,3-oxazol-2-yl]phenyl}acetate] | 136 to 137 °C |
